Columns and labels:
[1] = cited from earlier work
[2] = test system: CDCA5
Procedure: (§1) [FIG. 5] […] B, Non-tagged CDCA5 expressing vector was transfected to HeLa cells. After starving the cells in FBS free for 20 hours, EGF stimulations were performed at 5, 10, 20, 30 minutes. 10 uM U0126 treatment was performed for 1 hour.
(§2) Cultured cervical squamous cell carcinoma HeLa cells were cultured in FCS free medium for 20 hours. Then, the cells were stimulated by […] EGF for 20 min with or without 10 micro-M MEK inhibitor U0126 (Promega).

[3] = test system: ERK; details: EGF stimulation
Procedure: as §1
[FIG. 6A] […] A, ERK1 or ERK2 expressing vector was co-transfected with non-tagged CDCA5 expressing vector to HeLa cells. After starvation of HeLa cells in FBS free for 20 hours, the cells were stimulated with 50 ng/ml EGF for 5, 10, 20, 30 minutes, respectively. 10 uM U0126 treatment was performed for 1 hour before EGF stimulation.
as §2

[4] = test system: A549 lung cancer cell line; assay: Growth assay (MTT) after transfection of CDCA5 mutant vectors, A549; type: cell-based, human; details: MTT at 6th day after transfection; compared with mock and wild type vectors
Procedure: (§3) [FIG. 7A] The function of ERK-dependent phosphorylation sites in cancer cells. […] Growth assay was performed using A549 and LC319 lung cancer cell lines transfected with mock, wild type and CDCA5 alanine substitute vectors. MTT assay was performed at 6th day after transfection.
(§4) [FIG. 7B] The function of ERK-dependent phosphorylation sites in cancer cells. B, Growth assay was performed using LC319 and A549 lung cancer cell line which was transfected with mock, wild type and CDCA5 phospho-mimicking mutant vectors. MTT assay was performed at 6th day after transfection.
(§5) Cell growth may be measured by methods known in the art, e.g., using the MTT cell proliferation assay; briefly, cell-counting kit-8 solution (DOJINDO) is added to each dish at a concentration of 1/10 volume, and the plates are incubated at 37 degree Centigrade (C) for additional 2 hours. Absorbance is then measured at 450 nm as a reference, with a Microplate Reader 550 (BIO-RAD, Hercules, Calif.).

[5] = test system: LC319 lung cancer cell line; assay: Growth assay (MTT) after transfection of CDCA5 mutant vectors, LC319; type: cell-based, human; details: MTT at 6th day after transfection; compared with mock and wild type vectors
Procedure: as §3, §4, §5

COc1cc2ncnc(Nc3ccc(F)c(Cl)c3)c2cc1OCCCN1CCOCC1 [gefitinib]
response rate and symptom control ([1]; NSCLC (NPL 11)): superior response rate and symptom control

N#CC(=C(/N)Sc1ccccc1N)/C(C#N)=C(\N)Sc1ccccc1N [U0126]
upper shift of endogenous CDCA5 band ([2]; serum-starved HeLa cells, EGF stimulation, 10 micro-M U0126): completely inhibited the upper shift of CDCA5 band
signal of spot no. 2 of myc-tagged CDCA5 increased by EGF stimulation ([2]; transfected HeLa cells, 2D-Western-blotting with anti-myc antibody, U0126 treatment): also reduced
EGF-induced shifted spots (no. 3 and 4) with more acidic pI of myc-tagged CDCA5 ([2]; transfected HeLa cells, 2D-Western-blotting with anti-myc antibody, pre-incubation with U0126): significantly reduced
activation of exogenous ERK1 or 2 as well as endogenous ERK ([3]; HeLa cells transfected with ERK1 or ERK2 and CDCA5 vectors, 10 uM U0126 for 1 hour before EGF): but not in U0126 MEK inhibitor treatment
levels of ERK phosphorylation ([3]; serum-starved HeLa cells, 10 micro-M U0126): reduced the levels of ERK phosphorylation

Ser209 alanine substitute: CDCA5 mutant, alanine at position 209 (SEQ ID NO: 7), expressed from transfected vector; dominant negative
growth of A549 cells (MTT assay) [4]: inhibited the growth
growth of LC319 cells (MTT assay) [5]: inhibited the growth

C#Cc1cccc(Nc2ncnc3cc(OCCOC)c(OCCOC)cc23)c1 [erlotinib]
median survival ([1]; NSCLC, placebo 4.7 months (NPL 10)): 6.7 months
